Experimental data: patent US4174406A, “Terpenylaminoalkanol fish toxicants” (priority 1977, dated 1979)
Values after ≈ are worked out from the molar mass of the structure shown.

Assays:
[1] = system: Bluegill; test: Laboratory fish toxicity test (Table 1); type: in vivo, Lepomis macrochirus; details: tech, 12 C, soft water
Method: (§1) Fish were obtained from state and federal hatcheries and maintained prior to testing by a trained fish culturist. Fish of total length 2-5 cm were used in laboratory tests while for outdoor tests small fish (4-6 cm in length) and larger carp and buffalo (Ictiobus cyprinellus) were used.
(§2) In all tests 10 fish of each were exposed to selective concentrations of the toxicant. Mortalities were observed and recorded at 1,2 and 6 hours on the first day and once daily thereafter, during 96 hour exposure.
(§3) Laboratory tests were also conducted in soft water 12° C. wherein the toxicant was evaluated against fifteen species of fish including both cold and warm water varieties. In Table 1, the LC 50 toxicity values for N-(2-hydroxyethyl) digeranylamine is shown for various species. LC50 is defined as the amount (mg/liter) of toxicant required to kill 50 percent of the particular fish species at 95% confidence interval.

[2] = system: Snail (Physa sp.); test: Static bioassay in invertebrates (Table 2); type: in vivo; details: tech, 17 C, limed spring water 22-36 mg/l hardness
Method: (§4) The effect of the various toxicants on common invertebrate species was determined in a static test conducted 17° C. The invertebrates tested were collected from natural populations or purchased from commercial suppliers. They were held in soft water in fiberglass tanks in the laboratory or in outdoor plastic swimming pools. Mortality was observed during holding, and only healthy organisms were used for the toxicity tests. At least 10 organisms of nine species were exposed to each concentration in static tests.

[3] = system: Aquatic olgochaete; test: Static bioassay in invertebrates (Table 2); type: in vivo; details: Tubifex tubifex, tech, 17 C, limed spring water 22-36 mg/l hardness
Method: as §4

[4] = system: Snail (Pleurecera sp.); test: Static bioassay in invertebrates (Table 2); type: in vivo; details: tech, 17 C, limed spring water 22-36 mg/l hardness
Method: as §4

[5] = system: Seed shrimp or ostracod; test: Static bioassay in invertebrates (Table 2); type: in vivo; details: tech, 17 C, limed spring water 22-36 mg/l hardness
Method: as §4

[6] = system: Water flea; test: Static bioassay in invertebrates (Table 2); type: in vivo; details: Daphnia magna, tech, 17 C, limed spring water 22-36 mg/l hardness
Method: as §4

[7] = system: Green sunfish; test: Laboratory fish toxicity test (Table 1); type: in vivo, Lepomis cyanellus; details: tech, 12 C, soft water
Method: as §1, §2, §3

[8] = system: Walleye; test: Outdoor plastic pool test (Table 3); type: in vivo, Sitzostedion vitreum; details: for % kill: 96 hour, 50% formulation (hydrochloride salt)
Method: (§5) N-(2-hydroxyethyl) digeranylamine was tested as a selective fish toxicant in outdoor pools stocked with various fish species and lined with black plastic using 50% water soluble formulations (hydrochloride salt). The formulation was added to each of four pools of 4,000-liter capacity at concentrations of 0.10, 0.15, 0.20, and 0.30 mg/liter. Another pool containing the same number, size, and species of fish served as a control. The test water had algal blooms, a pH of about 8.5, and a total hardness of about 200 mg/liter as CaCo3. The temperature was cool enough (15°-16°C.) to permit the use of trout.
as §1, §2
(§6) Outdoor pool tests were conducted using 50% formulation of the toxicant N-(2-hydroxyethyl) digeranylamine as indicated in Example 8. […] If selective control of white sucker and common carp is desired in an environment which includes rainbow trout, one should employ an effective concentration of toxicant which is at least as great as 0.05 mg/liter but less than 0.1 mg/liter. As a practical fishery practice in the northern United States and Canada, rainbow trout are not usually stocked in bodies of water containing the common carp species; the habitat conditions including water temperature and available oxygen of these species are usually quite different. Common carp and rainbow trout have quite different oxygen and temperature requirements and these differences generally preclude both species cohabitating under natural conditions. In this case the useful range to control common carp and white sucker can be much broader, i.e. 0.1 to 0.3 mg/liter.

[9] = system: White sucker; test: Laboratory fish toxicity test (Table 1); type: in vivo, Catostomus commersoni; details: tech, 12 C, soft water
Method: as §1, §2, §3

[10] = system: Grass carp; test: Outdoor plastic pool test (Table 3); type: in vivo, Ctenopharyngodon idella; details: for % kill: 96 hour, 50% formulation (hydrochloride salt)
Method: as §5, §1, §2, §6

CC(C)=CCC/C(C)=C/CN(C/C=C(\C)CCC=C(C)C)CCO [N-(2-hydroxyethyl) digeranylamine]
LC50 ([1]; 3 hours): 1.56 µg/mL (≈ 4.68 µM) | LC50 ([1]; 6 hours): 1.13 µg/mL (≈ 3.39 µM) | LC50 ([1]; 24 hours): 0.720 µg/mL (≈ 2.16 µM) | LC50 ([1]; 96 hours, 5760 min): 0.72 µg/mL (≈ 2.16 µM) | LC50 ([1]; 96 hours, listed as N-(2-hydroxyethyl) Digeranylamine, 5760 min): 0.720 µg/mL (≈ 2.16 µM) | LC50 ([2]; 1 hour): 6.30 µg/mL (≈ 18.9 µM) | LC50 ([2]; 3 hour): 2.25 µg/mL (≈ 6.75 µM) | LC50 ([2]; 6 hours): 0.945 µg/mL (≈ 2.83 µM) | LC50 ([2]; 28 hours): 0.580 µg/mL (≈ 1.74 µM) | LC50 ([2]; 96 hours): 0.460 µg/mL (≈ 1.38 µM) | LC50 ([3]; 1 hour): 4.3 µg/mL (≈ 12.9 µM) | LC50 ([3]; 3 hour): 2.64 µg/mL (≈ 7.91 µM) | LC50 ([3]; 6 hours): 2.35 µg/mL (≈ 7.05 µM) | LC50 ([3]; 28 hours): 0.28 µg/mL (≈ 0.839 µM) | LC50 ([3]; 96 hours): 0.054 µg/mL (≈ 0.162 µM) | LC50 ([4]; 28 hours): 10.3 µg/mL (≈ 30.9 µM) | LC50 ([4]; 96 hours): 2.68 µg/mL (≈ 8.03 µM) | LC50 ([5]; 6 hours): 3 µg/mL (≈ 8.99 µM) | LC50 ([5]; 28 hours): 1 µg/mL (≈ 3 µM) | LC50 ([5]; 96 hours): 0.32 µg/mL (≈ 0.959 µM) | LC50 ([6]; 1 hour): 8 µg/mL (≈ 24 µM) | LC50 ([6]; 3 hour): 3.95 µg/mL (≈ 11.8 µM) | LC50 ([6]; 6 hours): 3 µg/mL (≈ 8.99 µM) | LC50 ([6]; 28 hours): 0.8 µg/mL (≈ 2.4 µM) | LC50 ([6]; 96 hours): 0.16 µg/mL (≈ 0.48 µM) | LC50 ([7]; 24 hours): 0.640 µg/mL (≈ 1.92 µM) | LC50 ([7]; 96 hours): 0.640 µg/mL (≈ 1.92 µM) | % kill ([8]; 0.10 mg/l): 0% | % kill ([8]; 0.15 mg/l): 10% | % kill ([8]; 0.20 mg/l): 0% | % kill ([8]; 0.30 mg/l): 0% | survival (in words) ([8]; walleye, 0.3 mg/liter, 50% formulation): complete survival | LC50 ([9]; 3 hours): 0.540 µg/mL (≈ 1.62 µM) | LC50 ([9]; 6 hours): 0.136 µg/mL (≈ 0.408 µM) | LC50 ([9]; 24 hours): 0.0690 µg/mL (≈ 0.207 µM) | % kill ([10]; 0.10 mg/l): 0% | % kill ([10]; 0.15 mg/l): 0% | % kill ([10]; 0.20 mg/l): 0% | % kill ([10]; 0.30 mg/l): 0% | survival (in words) ([10]; grass carp, 0.3 mg/liter, 50% formulation): complete survival
